# According to BigSolDB 2.1:
structure (smiles),measurement,setting,value
COc1cc(/C=C/c2ccc(O)cc2)cc(OC)c1,solubility (mole fraction),"in PEG-400, 298.2 K",0.346
same,solubility (mole fraction),"in PEG-400, 303.2 K",0.351
same,solubility (mole fraction),"in PEG-400, 308.2 K",0.358
same,solubility (mole fraction),"in PEG-400, 313.2 K",0.366
same,solubility (mole fraction),"in PEG-400, 318.2 K",0.373
same,solubility (mole fraction),"in ethanol, 298.2 K",0.113
same,solubility (mole fraction),"in ethanol, 303.2 K",0.117
same,solubility (mole fraction),"in ethanol, 308.2 K",0.124
same,solubility (mole fraction),"in ethanol, 313.2 K",0.129
same,solubility (mole fraction),"in ethanol, 318.2 K",0.136
same,solubility (mole fraction),"in propylene glycol, 298.2 K",0.25
same,solubility (mole fraction),"in propylene glycol, 303.2 K",0.26
same,solubility (mole fraction),"in propylene glycol, 308.2 K",0.272
same,solubility (mole fraction),"in propylene glycol, 313.2 K",0.281
same,solubility (mole fraction),"in propylene glycol, 318.2 K",0.29
same,solubility (mole fraction),"in transcutol, 298.2 K",0.23
same,solubility (mole fraction),"in transcutol, 303.2 K",0.235
same,solubility (mole fraction),"in transcutol, 308.2 K",0.241
same,solubility (mole fraction),"in transcutol, 313.2 K",0.248
same,solubility (mole fraction),"in transcutol, 318.2 K",0.253
same,solubility (mole fraction),"in water, 298.2 K",1.27e-06
same,solubility (mole fraction),"in water, 303.2 K",1.62e-06
same,solubility (mole fraction),"in water, 308.2 K",2.04e-06
same,solubility (mole fraction),"in water, 313.2 K",2.53e-06
same,solubility (mole fraction),"in water, 318.2 K",2.95e-06
